Reference: ChEMBL document CHEMBL1147332, “Screening of marine invertebrates for the presence of ergosterol-sensitive antifungal compounds” (1993)
The source made the active and inactive calls. The calls are words filed in the database; no cut-off is given here.

Legend:
Candida albicans [1] = experiment: Antifungal activity against Candida albicans at <= 1 ug after 16 to 19 hrs by disk diffusion assay; format: functional, organism-based
Candida albicans [2] = experiment: Antifungal activity against Candida albicans after 16 to 19 hrs by disk diffusion assay; format: functional, organism-based
Candida albicans [3] = experiment: Antifungal activity against Candida albicans after 16 to 19 hrs by disk diffusion assay in presence of 100 ppm ergosterol; format: functional, organism-based
Candida albicans [4] = experiment: Antifungal activity against Candida albicans at 2 ug after 16 to 19 hrs by disk diffusion assay in presence of 20 ppm ergosterol; format: functional
Candida albicans [5] = experiment: Antifungal activity against Candida albicans at 1 ug after 16 to 19 hrs by disk diffusion assay in presence of increasing concentration of ergosterol; format: functional, organism-based
Candida albicans [6] = experiment: Antifungal activity against Candida albicans at 5 ug after 16 to 19 hrs by disk diffusion assay in presence of 120 ppm ergosterol; format: functional

SMILES: CO[C@H]([C@H](C)/C=C/N(C)C=O)[C@@H](C)C(=O)CC[C@H](C)[C@H](C[C@@H]1OC(=O)C[C@@H](OC(N)=O)C[C@H](C)C[C@H](O)[C@H](C)[C@@H](OC)c2coc(n2)-c2coc(n2)-c2coc(n2)/C=C/C[C@H](OC)[C@H]1C)OC
- Activity (Candida albicans [1]): Active
- Activity (Candida albicans [2]): inactive

SMILES: Clc1ccc(COC(Cn2ccnc2)c2ccc(Cl)cc2Cl)c(Cl)c1 (stereo not drawn)
- Activity (Candida albicans [3]): Active

SMILES: C[C@@H]1[C@H](O)[C@@H](C)/C=C/C=C/C=C/C=C/C=C/C=C/C=C/[C@H](O[C@@H]2O[C@H](C)[C@@H](O)[C@H](N)[C@@H]2O)C[C@@H]2O[C@](O)(C[C@@H](O)C[C@@H](O)[C@H](O)CC[C@@H](O)C[C@@H](O)CC(=O)O[C@H]1C)C[C@H](O)[C@H]2C(=O)O [AMPHOTERICIN B]
- Activity (Candida albicans [4]): 50%
- Activity (Candida albicans [5]): Active

SMILES: C/C1=C\[C@H](C)C[C@H](C)OC(=O)C[C@H](c2ccc(O)cc2)NC(=O)[C@@H](Cc2c(Br)[nH]c3ccccc23)N(C)C(=O)[C@H](C)NC(=O)[C@@H](C)C1 [JASPAMIDE]
- Activity (Candida albicans [1]): Active
- Activity (Candida albicans [2]): inactive
- Activity (Candida albicans [6]): 50%
